Experimental data reported in patent US20120122816A1, “COMPOSITIONS AND METHODS FOR ORGAN PRESERVATION” (Resolvyx Pharmaceuticals, Inc., priority 2009, published 2012).
Where two headings read alike, the source gives them in different places.

Key:
[1] = system: ARPE-19 cells; test: Oxidative stress-induced apoptosis (TNF-α/H2O2), Hoechst positive cells; type: cell-based; settings: for oxidative stress-induced apoptosis, concentration dependence: 10, 30 and 50 nM; for inhibition at 0.03 µM / inhibition at 0.05 µM: Homo sapiens, ARPE-19; for inhibition at 0.05 µM: 50 nM compound
Experimental: (§1) The effects of compounds of the invention on apoptotic cell death induced by oxidative stress and on Il-1β induced pro-inflammatory COX-2 gene expression in ARPE-19 cells was measured using the following protocol.
(§2) 72 h grown cells in 6 well plates were serum starved for 8 h, and then oxidative stress was induced with TNF-α/H2O2 (600 μM) for 16 h. Cells were incubated with different concentrations of compound X, compound Z, and compound 48b. Apoptotic cell death was scored by Hoechst positive cells. COX-2 (−830) promoter construct, linked to luciferase reporter gene, was used to transfect ARPE-19 cells by Fugene-6. A β-galactosidase plasmid was co-transfected as transfection control. Transfected cells were serum starved, induced by Il-1β, and incubated with different concentrations of compound X, compound Z, and compound 48b. Luciferase assays were performed using luciferin as substrate.

[2] = system: COX-2 gene expression; test: Il-1β induced COX-2 promoter luciferase reporter assay in ARPE-19 cells; type: cell-based; settings: FIG. 3
Experimental: as §1, §2

[3] = system: Rats; test: Protection against ischemia reperfusion injury (coronary artery occlusion and reperfusion); type: in vivo, rat
Experimental: The ability of compound X, administered before reperfusion, to limit myocardial infarct size (IS) was measured using the following protocol.
Rats were anesthetized with ketamine and xylazine and underwent 30 min of coronary artery occlusion and 4 h of reperfusion. Just before reperfusion rats received compound X i.v. (0.03 mg/kg, 0.1 mg/kg or 0.3 mg/kg) or vehicle alone (control). Area at risk (AR) was assessed by blue dye and IS by triphenyltetrazoliumchloride (TTC) staining.

[4] = system: H9C2 cells; test: Protection against hypoxia-reoxygenation injury (trypan blue uptake, MTT); type: cell-based, rat
Experimental: The ability of compound X to protect cardiomyocytes against hypoxia-reoxygenation injury was measured using the following protocol.
H9C2 cells derived from embryonic rat heart tissue were incubated with compound X (0, 1, 10, 100, or 1000 nM). Cells were subjected to 16 h of hypoxia and 2 h of reoxygenation. Cell death was assessed by trypan blue (TB) uptake and cell viability by MTT (3-(4,5-dimethylthiazol-2-yl)-2,5-diphenyl tetrazolium bromide) assay.

[5] = system: H9C2 cells; test: as above; type: cell-based, rat; remark: listed apart in the source
[6] = 30 nM compound, TNF-α/H2O2 (600 μM) 16 h, FIG. 1, read-out: inhibition of oxidative stress-induced apoptosis
[7] = TNF-α/H2O2 (600 μM) 16 h, FIG. 1
[8] = i.v. 0.03-0.3 mg/kg, anesthetized rats

CC/C=C\C[C@H](O)\C=C/C=C/C=C/[C@H](O)C/C=C\C/C=C\CCC(=O)O [Compound 48b]
oxidative stress-induced apoptosis, concentration dependence [1]: inhibit oxidative stress-induced apoptosis in a concentration dependent manner | inhibition at 0.03 µM [1, 6]: ~45% | inhibition at 0.05 µM [1, 7]: ~80% | expression of pro-inflammatory COX-2 [2]: stronger inhibition

CC[C@@H](O)/C=C/C=C\C[C@@H](O)/C=C/C=C/C=C\[C@@H](O)CCCC(=O)O [Compound X]
oxidative stress-induced apoptosis, concentration dependence [1]: inhibit oxidative stress-induced apoptosis in a concentration dependent manner | inhibition at 0.03 µM [1, 6]: ~20% | inhibition at 0.05 µM [1, 7]: ~30% | inhibition at 0.03 µM ([1]; each compound at 30 nM, plus compound 48b, FIG. 2, read-out: combined inhibition of apoptosis upon addition of compound 48b): ~60% | expression of pro-inflammatory COX-2 [2]: inhibited | myocardial infarct size (IS) ([3]; i.v. 0.03, 0.1 or 0.3 mg/kg just before reperfusion, 30 min occlusion, 4 h reperfusion, FIG. 4): dose-dependently limited IS | heart rate [3, 8]: did not affect | mean blood pressure [3, 8]: did not affect | TB (%) (trypan blue positive cells) ([4]; 1.0 nM, 16 h hypoxia, 2 h reoxygenation): 35.5 ± 0.4% | TB (%) (trypan blue positive cells) ([4]; 10 nM, 16 h hypoxia, 2 h reoxygenation): 30.3 ± 0.4% | TB (%) (trypan blue positive cells) ([4]; 100 nM, 16 h hypoxia, 2 h reoxygenation): 23.8 ± 0.9% | TB (%) (trypan blue positive cells) ([4]; 1000 nM, 16 h hypoxia, 2 h reoxygenation): 24.1 ± 0.3% | viability at 0.001 µM ([4]; Rattus norvegicus, H9c2, 1.0 nM, 16 h hypoxia, 2 h reoxygenation, read-out: MTT (%) (cell viability)): 50.1 ± 0.8% | viability at 0.01 µM ([4]; Rattus norvegicus, H9c2, 10 nM, 16 h hypoxia, 2 h reoxygenation, read-out: MTT (%) (cell viability)): 62.6 ± 1.2% | viability at 0.1 µM ([4]; Rattus norvegicus, H9c2, 100 nM, 16 h hypoxia, 2 h reoxygenation, read-out: MTT (%) (cell viability)): 74.6 ± 0.9% | viability at 1 µM ([4]; Rattus norvegicus, H9c2, 1000 nM, 16 h hypoxia, 2 h reoxygenation, read-out: MTT (%) (cell viability)): 70.5 ± 0.5% | concentration of maximal effect ([4]; tested 1-1000 nM): 100 nM | apoptosis [5]: decreased apoptosis
